This note sets out measurements from patent US6671540B1, “Methods and systems for detecting abnormal tissue using spectroscopic techniques” (priority 1990, dated 2003).

One data set deals with hippocampal slice. Briefly: Stimulation-evoked afterdischarge activity in hippocampal slice (field recording and intrinsic optical signal). Format: cell-based, rat. How it is done: Sprague-Dawley rats (male and female; 25 to 35 days old) were prepared as described in Aghajanian, A. K. and Rasmussen, K., Synapse 31:331, 1989; and Buckmaster, P. S., Strowbridge, B. W., Schwartzdroin, P. A., J. Neurophysiol. 70:1281, 1993. In most hippocampal slice experiments, simultaneous extracellular field electrode recordings were obtained from CA1 and CA3 areas. For stimulation-evoked afterdischarge (13 slices, 8 animals), the concentration of Mg^2+ in the bathing medium was reduced to 0.9 mM. A bipolar tungsten stimulating electrode was placed on the Schaffer collaterals to evoke synaptically driven field responses in CA1; stimuli consisted to 100 to 300-μs-duration pulses at an intensity of four times population-spike threshold. Afterdischarges were evoked by a 2-s train of such stimuli delivered at 60 Hz. […] In all treatments, perfusion with furosemide-containing medium was begun after a consistent level of bursting had been established.
For imaging of intrinsic optical signals, the tissue was illuminated with a beam of white light (tungsten filament light and lens system; Dedotec USA, Lodi, N.J.) directed through the microscope condenser. The light was controlled and regulated (power supply: Lambda Electronics, Melville, N.Y.) to minimize fluctuations and filtered (695 nm long-pass) so that the slice was transilluminated with long wavelengths (red). Image frames were acquired with a charge-coupled device camera (Dage-MTI) at 30 Hz and were digitized at 8 bits with a spatial resolution of 512 by 480 pixels by means of an Imaging Technology Series 151 imaging system; gains and offsets of the camera-control box and the analog-to-digital board were adjusted to optimize the sensitivity of the system. Imaging hardware was controlled by a 486-PC-compatible computer running software written by D. Hochman and developed with commercially available software tools (Microsoft's C/C++ Compiler and Imaging Technology's ITEX library). To increase signal-to-noise ratio, an averaged image was composed from 16 individual image-frames, integrated over 0.5 s and averaged together. An experimental series typically involved the continuous acquisition of a series of averaged images over a several minute time period; at least 10 of these averaged images were acquired as control images before stimulation. Pseudo-colored images were calculated by subtracting the first control image from subsequently acquired images and assigned a color lookup table to the pixel values. For these images, usually a linear low-pass filter was used to remove high-frequency noise and a linear-histogram stretch was used to map the pixel values over the dynamic range of the system. All operations on these images were linear so that quantitative information was preserved.

Data set [1] relates to highly malignant CNS tumor (glioblastoma; astrocytoma, grade IV). Nature of the data set: Intraoperative optical imaging of dye uptake and clearance, malignant human CNS tumor. The class given is in vivo. The settings on record: iv injection; 1 minute and 10 minutes after dye injection. The source says: (§1) The procedure used in Examples 1-4 was as follows. The area of interest was evenly illuminated by a fiber optic light source with the radiation passing through a beam splitter, controlled by a D.C. regulated power supply (Lambda, Inc.) and passed through a 695 nm longpass filter. Images were acquired with a CCD camera (COHU 6500) fitted to the operating microscope with a specially modified cineadaptor. The cortex was stabilized with a glass footplate. Images were acquired at 30 Hz and digitized at 8 bits (512×480 pixels, using an Imaging Technology, Inc. Series 151 system, Woburn, Mass.). Geometrical transformations were applied to images to compensate for small amounts of patient motion (Wohlberg, Digital Imaging Warping, IEEE Computer Society: Los Alamitos, Calif., 1988). […] Raw data (i.e., no digital enhancement) were used for determining the average optical change in specified regions (average size box was 30×30 pixels or 150-250 um^2). For pseudocolor images, a linear low pass filter removed high frequency noise and linear histogram transformations were applied. Noise was defined as the standard deviation of fluctuations it! sequentially acquired control images as 0.003-0.009.
This example illustrates optical detection of a highly malignant CNS tumor (glioblastoma; astrocytoma, grade IV). […]

In data set [2] the test system is low grade CNS tumor (astrocytoma, grade 1). Nature of the data set: Intraoperative optical imaging of dye uptake and clearance, low grade human CNS tumor. The settings on record: 1 mg/kg iv bolus. Format: in vivo.
From the text: as §1
An averaged control image was obtained of the particular cortical surface area of interest. FIG. 1A is a gray-scale image of the area of interest prior to dye administration. […]

Data set [3] deals with rat glioma. To be noted: in vivo. The source says:
This example illustrates a series of experiments using a rat glioma model through an intact skull to investigate whether the inventive method and inventive device could function in to image tumor tissue through an intact skull and through intact skin prior to or after surgery. Far red wavelengths of emr are known to penetrate through bone and skin. Imaging of tumor tissue was attempted through the intact skull of the rat. The extent of tumor identified was not as accurate as with the cortex exposed; however, the area lying beneath the skull with tumor tissue was easily identified and localized, and continued to concentrate dye after several minutes. […] One minute after dye injection, the dye had been cleared from the normal brain and the only residual signal remained in tumor tissue and the sagital/traverse sinuses.
FIG. 5A is a gray scale image of the cranial surface of a rat. The sagital suture runs down the center of the image. Tumor cells had been injected into the left side some days earlier so that this animal had developed a glioma on t he left hemisphere of its brain. The right hemisphere was normal. Box 1 lays over the suspect region of brain tumor, and Box 2 lays over normal tissue. FIG. 5B is a difference image one second after indocyanine green dye had been intraveneously injected into the animal. The region containing tumor tissue becomes immediately visible through the intact cranium. […] The concentration of dye in the center of this difference image is dye circulating in the sagital sinus.
The optical changes were determined by the average optical change in a box placed directly over the tumor and over the normal hemisphere. The increase in absorption is a function of the concentration of dye in the tissue at a particular time. The graph labeled “extracranial tumor” is a plot of the dynamics of the absorption changes within box 1 from FIG. 5A. The graph labeled “extracranial: normal” is a plot of the dynamics of the absorption change within box 2 from FIG. 5A.
The following imaging apparatus was employed in Examples 5 and 6. […]

Data set [4] concerns rat glioma. The settings on record: female, F-344, rat, in vivo. The source says: The rat glioma model is a standard predictive model and was used to delineate dye uptake, clearance and overall parameters of optical imaging that result in the best images. The rat glioma model consistently produces reproducible tumors for imaging studies in which the tumor is resected under an operating microscope. A disadvantage of this model is the more sarcoma-like appearance of the tumor and a lesser degree of vascularity compared to human gliomas.
Briefly, the rat glioma model uses an ethylnitrosourea-induced F-344 rat tumor line developed from a clonal population of a spinal malignant astrocytoma. […] The glioma cells were maintained in Weymouth's medium supplemented with 10% fetal calf serum. Viable cells ([…]) were trypsinized from a monolayer culture and implanted stereotaxically into the right cerebral hemisphere of 30 syngeneic female rats, each weighing 140-160 g. The stereotaxic coordinates for right frontal lobe implantation were 4.5 mm anterior to the frontal zero plane, 3 mm right from the midline and 6 mm deep. The rats were anesthetized for implantation. The heads were shaved and scalps opened, and a 1 mm burr hole made at the appropriate coordinates. The cells were injected through a 27 gauge needle, the needle left in place for 30 sec post injection and the hole was covered with bone wax. The scalp was sutured and the animals observed for 3-4 hrs until they returned to normal activity and feeding. The animals were used 10-14 days after tumor implantation. In this model, animals begin to show clinical symptoms from the tumor by 16-19 days, such as decreased activity and feeding, hemiparesis and eventually succumb between 19-27 days from mass effects due to tumor expansion.
Fourteen animals underwent the complete study, including imaging before and after resection of the tumor. The animals were anesthetized with 2% isoflurane, and the femoral vein cannulated for administration of the dye. Anesthesia was maintained with a—chloralose (50 mg/kg administered ip) and urethane (160 mg/kg administered ip). The animals were placed in a stereotaxic holder. Imaging studies were then carried out before or after removal of the cranium. The tumor typically occupied the anterior one half to two thirds of the right hemisphere exposure. The compressed brain without any tumor infiltration was defined as the tumor surround to separate it from the normal hemisphere on the contralateral side.
The following imaging apparatus was employed in Examples 5 and 6. Light was from a tungsten-halogen bulb regulated by a D.C. power supply, passed through a longpass filter (690 nm), and through a right angled prism reflected through a 50 or 100 mm objective lens onto the cortical surface. […]

[5] abbreviates: 2.5 mM, 20 minutes of perfusion.

As to `NS(=O)(=O)c1cc(C(=O)O)c(NCc2ccco2)cc1Cl` [furosemide], in the data set on hippocampal slice (setting [5]), the electrical afterdischarge activity result is “blocked” and the stimulation-evoked optical changes result is given as “blocked”. Also, the reversibility after washout entry in the data set with hippocampal slice (45 minutes of perfusion with normal bathing medium) is on record as “restoration of the initial response pattern”. In addition, the “epileptiform activity and intrinsic optical signal during electrical stimulation” value in the data set with hippocampal slice (following treatment with furosemide) is “blocks the epileptiform activity and the intrinsic optical signal”.
On to `CC1(C)C(/C=C/C=C/C=C/C=C2\N(CCCCS(=O)(=O)O)c3ccc4ccccc4c3C2(C)C)=[N+](CCCCS(=O)(=O)[O-])c2ccc3ccccc3c21` [indocyanine green], for which the “retention of dye in malignant tissue” value in data set [1] is “retained significantly longer in malignant tissue than in benign tumor tissue”. Further, in data set [2], the “entry of dye into low grade tumor tissue vs normal brain tissue” value is “enters low grade tumor tissue faster than normal brain tissue”. Further, in the data set with rat glioma [3], the “peak optical change, normal brain” value came out at 7.8±2.3% and the “peak optical change, tumor” value is on record as 13.1±3.9%. Besides, in the data set with rat glioma [3] (iv), the “dye clearance, normal vs tumor region” value is “the normal tissue has cleared the dye, but dye is still retained in the tumor region”. For the same molecule, in the data set on rat glioma [4], the “duration of prolonged increase in optical signal in the tumor” value is on record as above 2 min; the “dye uptake rise time, normal” value was 2.4 %/sec; the “onset of optical signal change after dye injection” value lay within 2 to 3 s; the “peak percentage difference change, tumor” value is on record as 40.5±9.6%.
